Assay results as given in patent US11802128B2, “Azetidine and pyrrolidine PARP1 inhibitors and uses thereof” (Xinthera, Inc., priority 2021, dated 2023).

How the values were obtained:
DLD-1 BRCA2(−/−) cells = experiment: Cell growth inhibition assay (CellTiter-Glo cell viability, 7 days); format: cell-based; details: Homo sapiens, 168 h
Description: (§1) The objective of this study is to evaluate the effect of invention compounds on cell proliferation through the cell viability assay in DLD-1 BRCA2(−/−) and parental isogenic pair and MDA-MB-436 (mutated BRCA1) cell lines. The CellTiter-Glo (CTG) based cell viability assay is designed to determine the number of viable cells in the culture because of compound effect, by quantifying ATP, which indicates the presence of metabolically active cells.
(§2) DLD-1 BRCA2(−/−) and parental isogenic pair were cultured in RPMI 1640 supplemented with 10% fetal bovine serum (FBS), and MDA-MB-436 cells were cultured in DMEM supplemented with 10% FBS. Both are culture at 37° C. with 5% CO2. Invention compounds were distributed to the 384 well plate (Corning, 3764) using Echo acoustic liquid handler to form a 1:3 serially diluted final concentration with top dose of 10 or 30 μM. The cells were seeded into the plate in the density of 50 cells/well (DLD-1 parental), 200 cells/well (DLD-1 BRCA2−/−), or 500 cells/well (MDA-MB-436). After a short spun, the cells were cultured in a well moisturized incubator at 37° C. with 5% CO2 for 7 days without disturbance. The cell viability was measured by CellTiter Glo 2.0 assay kit (Promega, G9243), and growth inhibition rate was calculated and plotted against final compound concentration, and the data were fitted in Xfit to generate IC50.

[1] = tested on: MDA-MB-436 (mutated BRCA1) cells; experiment: as above; format: cell-based; details: Homo sapiens, 168 h, MDA-MB-436, 7 days
Description: as §1, §2

PARP1 = PARP1 (Homo sapiens (Human), UniProt P09874); experiment: Biochemical fluorescent polarization (FP) assay, displacement of PARPi-FL; format: binding; details: 20 nM protein, 3 nM PARPi-FL, 4 h at room temperature
Protocol: (§3) The assay was performed utilizing the following method:
(§4) 100% DMSO was used for the high (with protein) and low (without protein) control samples. 20 nL of compound or DMSO alone was added to individual assay plate wells.
(§5) PARP1 and PARP2 protein were expressed, purified, and diluted in assay buffer containing 50 mM Tris pH 8.0, 0.001% Triton X-100, 10 mM MgCl2, 150 mM NaCl to a final concentration of 20 nM. The PARPi-FL was then added at a final concentration of 3 nM.
(§6) The assay plate is centrifuged at 1000 rpm for 1 min and incubated for 4 h at room temperature.
(§7) The fluorescent polarization is read using an Envision plate reader using the following settings: […]

PARP2 = PARP2 (Homo sapiens (Human), UniProt Q9UGN5); experiment: as above; format: binding; details: 20 nM protein, 3 nM PARPi-FL, 4 h at room temperature; read-out: IC50 FP PARP2
Protocol: as §3, §4, §5, §6, §7

Chain of PARP2 (Q9UGN5 whole entry): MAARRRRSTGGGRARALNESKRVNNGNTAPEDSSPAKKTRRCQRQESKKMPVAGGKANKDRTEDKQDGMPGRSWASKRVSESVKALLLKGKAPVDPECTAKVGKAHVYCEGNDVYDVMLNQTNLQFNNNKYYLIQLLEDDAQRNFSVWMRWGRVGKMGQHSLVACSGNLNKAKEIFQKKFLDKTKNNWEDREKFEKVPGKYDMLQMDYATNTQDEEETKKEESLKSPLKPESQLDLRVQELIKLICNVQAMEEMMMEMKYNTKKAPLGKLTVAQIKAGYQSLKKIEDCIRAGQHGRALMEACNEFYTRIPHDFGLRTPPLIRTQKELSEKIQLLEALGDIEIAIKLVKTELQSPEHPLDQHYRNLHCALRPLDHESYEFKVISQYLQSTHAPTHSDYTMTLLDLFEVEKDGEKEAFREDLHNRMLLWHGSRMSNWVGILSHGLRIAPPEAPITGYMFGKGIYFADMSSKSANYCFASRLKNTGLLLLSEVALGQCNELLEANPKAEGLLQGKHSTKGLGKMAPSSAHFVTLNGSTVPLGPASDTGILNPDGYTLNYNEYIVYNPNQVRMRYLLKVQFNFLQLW
Chain of PARP1 (P09874 whole entry): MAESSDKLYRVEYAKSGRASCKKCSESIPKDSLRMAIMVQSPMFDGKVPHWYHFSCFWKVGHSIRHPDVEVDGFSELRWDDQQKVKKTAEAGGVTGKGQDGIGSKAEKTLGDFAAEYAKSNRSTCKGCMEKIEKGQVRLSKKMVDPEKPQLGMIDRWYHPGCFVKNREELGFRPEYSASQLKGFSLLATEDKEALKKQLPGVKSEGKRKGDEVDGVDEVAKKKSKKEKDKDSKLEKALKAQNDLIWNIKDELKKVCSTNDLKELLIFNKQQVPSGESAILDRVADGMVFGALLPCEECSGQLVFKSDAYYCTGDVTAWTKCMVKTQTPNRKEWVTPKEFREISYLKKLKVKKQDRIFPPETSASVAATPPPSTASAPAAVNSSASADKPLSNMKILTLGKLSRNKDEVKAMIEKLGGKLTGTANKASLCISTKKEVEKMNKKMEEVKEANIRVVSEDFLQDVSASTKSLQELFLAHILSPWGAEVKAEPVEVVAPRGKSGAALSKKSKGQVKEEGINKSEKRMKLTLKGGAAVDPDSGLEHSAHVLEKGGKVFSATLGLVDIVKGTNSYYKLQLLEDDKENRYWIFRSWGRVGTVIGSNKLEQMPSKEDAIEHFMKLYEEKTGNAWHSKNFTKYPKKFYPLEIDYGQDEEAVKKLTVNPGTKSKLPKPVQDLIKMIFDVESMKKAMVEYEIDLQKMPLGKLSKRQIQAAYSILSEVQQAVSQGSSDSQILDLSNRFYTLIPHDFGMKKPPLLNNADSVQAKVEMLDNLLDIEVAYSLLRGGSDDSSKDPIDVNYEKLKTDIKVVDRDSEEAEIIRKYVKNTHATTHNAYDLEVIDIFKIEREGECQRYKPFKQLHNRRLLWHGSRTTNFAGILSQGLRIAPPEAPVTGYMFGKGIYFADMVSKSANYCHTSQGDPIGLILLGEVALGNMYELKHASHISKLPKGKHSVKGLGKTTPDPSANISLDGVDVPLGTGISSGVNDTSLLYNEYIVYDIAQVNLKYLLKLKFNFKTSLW

Compound | EC50 (DLD-1 BRCA2(−/−) cells) [nM] | EC50 [1] [nM] | IC50 (PARP1) [nM] | IC50 (PARP2) [nM]
Cc1cc2ncc([C@@H](C)N3C[C@H](Oc4ccc(C#N)nc4)[C@H]3C)cc2[nH]c1=O (single isomer, unassigned) [Example 60] | > 1000 | > 1000 | > 100 | > 100000
Cc1cc2ncc([C@H](C)N3C[C@H](Oc4ccc(C#N)nc4)[C@H]3C)cc2[nH]c1=O (single isomer, unassigned) [Example 61] | 10 | 8.8 | 18 | 23000
[2H]C([2H])([2H])NC(=O)c1ccc(O[C@H]2CN(Cc3ccc4nc(CC)c(=O)[nH]c4c3F)[C@@H]2C)c(F)n1 [Example 110, 5-{[(2R,3S)-1-[(2-ethyl-5-fluoro-3-oxo-4H-quinoxalin-6-yl)methyl]-2-methylazetidin-3-yl]oxy}-6-fluoro-N-methyl-d3 pyridine-2-carboxamide] | 14 | 9.4 | – | –
[2H]C([2H])(c1ccc2nc(CC)c(=O)[nH]c2c1F)N1C[C@H](Oc2ccc(C(=O)NC)nc2F)[C@H]1C [Example 111] | 15 | 13 | – | –
[2H]C([2H])(c1ccc2nc(CC)c(=O)[nH]c2c1F)N1C[C@H](Oc2ccc(C(=O)NC3CC3)nc2F)[C@H]1C [Example 112] | 4.7 | 2.6 | – | –
CNC(=O)c1ccc(O[C@H]2CN(Cc3ccc4c([nH]c(=O)c5ccnn54)c3F)[C@@H]2C)cn1 [Example 113, 5-{[(2R,3S)-1-({6-fluoro-4-oxo-5H-pyrazolo[1,5-a]quinoxalin-7-yl}methyl)-2-methylazetidin-3-yl]oxy}-N-methylpyridine-2-carboxamide] | 16 | 8.7 | – | –
Cc1cc2c(=O)[nH]c3c(F)c(CN4C[C@H](Oc5ccc(C(=O)NC6CC6)nc5)[C@H]4C)ccc3n2n1 [Example 114] | 5.9 | 3.6 | – | –
CNC(=O)c1ccc(O[C@H]2CN(Cc3ccc4c5c(c(=O)[nH]c4c3F)CCO5)[C@@H]2C)cn1 [Example 115, 5-{[(2R,3S)-1-({6-fluoro-4-oxo-2H,3H,5H-furo[3,2-c]quinolin-7-yl}methyl)-2-methylazetidin-3-yl]oxy}-N-methylpyridine-2-carboxamide] | 170 | 170 | – | –
C[C@@H]1[C@@H](Oc2ccc(C(=O)NC3CC3)nc2)CN1Cc1ccc2c3c(c(=O)[nH]c2c1F)CCO3 [Example 116] | 13 | 3.3 | – | –
C[C@@H]1[C@@H](Oc2ccc(C(=O)NCC(F)F)nc2)CN1Cc1ccc2c([nH]c(=O)c3ccnn32)c1F [Example 119] | 6.8 | 4.4 | – | –
C[C@@H]1[C@@H](Oc2ccc(C(=O)NCC(F)F)nc2)CN1Cc1ccc2c3c(c(=O)[nH]c2c1F)CCO3 [Example 120] | 21 | 8.7 | – | –

Next, values leading:

EC50 (DLD-1 BRCA2(−/−) cells) [nM] | EC50 [1] [nM] | IC50 (PARP1) [nM] | IC50 (PARP2) [nM] | Compound
1.2 | 0.62 | 4.5 | 900 | CCc1cc2ncc([C@@H](C)N3C[C@H](Oc4ccc(C(=O)NC)nc4)[C@H]3C)cc2[nH]c1=O (single isomer, unassigned) [Example 54, 5-{[(2R,3S)-1-[(1R*)-1-(7-ethyl-6-oxo-5H-1,5-naphthyridin-3-yl)ethyl]-2-methylazetidin-3-yl]oxy}-N-methylpyridine-2-carboxamide]
38 | 12 | 6.4 | > 100000 | CCc1cc2ncc([C@H](C)N3C[C@H](Oc4ccc(C(=O)NC)nc4)[C@H]3C)cc2[nH]c1=O (single isomer, unassigned) [Example 55, 5-{[(2R,3S)-1-[(1R*)-1-(7-ethyl-6-oxo-5H-1,5-naphthyridin-3-yl)ethyl]-2-methylazetidin-3-yl]oxy}-N-methylpyridine-2-carboxamide]
1.8 | 1.1 | 7.2 | 9600 | Cc1cc2ncc(CN3C[C@H](Oc4ccc(C(=O)N[C@H]5CC5(F)F)nc4)[C@H]3C)cc2[nH]c1=O (single isomer, unassigned) [Example 89]
2.8 | 1.8 | 8.5 | 3100 | Cc1cc2ncc(CN3C[C@H](Oc4ccc(C(=O)N[C@@H]5CC5(F)F)nc4)[C@H]3C)cc2[nH]c1=O (single isomer, unassigned) [Example 90]
8.8 | 6.8 | 6.8 | > 100000 | Cc1cc2ncc(CN3CCC(Oc4ccc(C(=O)NCC(F)F)nc4)C3)cc2[nH]c1=O (stereo in doubt) [Example 10, N-(2,2-difluoroethyl)-5-{[(3R)-1-[(7-methyl-6-oxo-5H-1,5-naphthyridin-3-yl)methyl]pyrrolidin-3-yl]oxy}pyridine-2-carboxamide]
13 | 4.5 | 6.4 | > 100000 | CNC(=O)c1ccc(O[C@@H]2CCN(Cc3cnc4cc(C5CC5)c(=O)[nH]c4c3)C2)cn1 [Example 3, 5-{[(3R)-1-[(7-cyclopropyl-6-oxo-5H-1,5-naphthyridin-3-yl)methyl]pyrrolidin-3-yl]oxy}-N-methylpyridine-2-carboxamide]
2 | 1.1 | 5.8 | 11000 | CCc1cc2ncc(CN3CC[C@@H](Oc4ccc(C(=O)NC5CC5)nc4)C3)cc2[nH]c1=O [Example 4, N-cyclopropyl-5-{[(3R)-1-[(7-ethyl-6-oxo-5H-1,5-naphthyridin-3-yl)methyl]pyrrolidin-3-yl]oxy}pyridine-2-carboxamide]
13 | 8.3 | 7.4 | 66000 | Cc1cc2ncc(CN3CC[C@@H](Oc4ccc(C(=O)NC5CC5)nc4)C3)cc2[nH]c1=O [Example 7, N-cyclopropyl-5-{[(3R)-1-[(7-methyl-6-oxo-5H-1,5-naphthyridin-3-yl)methyl]pyrrolidin-3-yl]oxy}pyridine-2-carboxamide]
83 | 36 | 6.6 | 62000 | CCc1cc2ncc(CN3CC[C@@](C)(Oc4ccc(C(=O)NC)nc4)C3)cc2[nH]c1=O [Example 12, 5-{[(3R)-1-[(7-ethyl-6-oxo-5H-1,5-naphthyridin-3-yl)methyl]-3-methylpyrrolidin-3-yl]oxy}-N-methylpyridine-2-carboxamide]
9.8 | 4.1 | 5.2 | 14000 | CCc1cc2ncc(CN3CC(Nc4ccc(C(=O)NC)nc4)C3)cc2[nH]c1=O [Example 14, 5-({1-[(7-ethyl-6-oxo-5H-1,5-naphthyridin-3-yl)methyl]azetidin-3-yl}amino)-N-methylpyridine-2-carboxamide]
13 | 13 | – | – | CCc1nc2ccc(CN3CC(Oc4ccc(C(=O)NC5CC5)nc4)C3)c(F)c2[nH]c1=O [Example 117]
24 | 22 | – | – | CCc1cc2ccc(CN3CC(Oc4ccc(C(=O)NC5CC5)nc4)C3)c(F)c2[nH]c1=O [Example 118]
1.2 | 1.8 | – | – | CNC(=O)c1ccc(O[C@H]2CN(Cc3ccc4c([nH]c(=O)c5c(F)cnn54)c3F)[C@@H]2C)cn1 [Example 121, 5-{[(2R,3S)-1-({3,6-difluoro-4-oxo-5H-pyrazolo[1,5-a]quinoxalin-7-yl}methyl)-2-methylazetidin-3-yl]oxy}-N-methylpyridine-2-carboxamide]
